In brackets after ≈: the same amount, converted by molar mass. Like-named read-outs stand apart in the source and are kept apart here.
Experiments:
[1] = test system: PVR induced by human RPE cells; test: PVR model with retinoid implants, Fastenberg scale; assay type: in vivo
Excerpt: PLA and PLGA implants 1.5 mm in diameter and 3 mm in length were fabricated by extrusion of the polymer drug blend. Tazarotenic acid (the free acid of Tazarotene) Tazarotene and 13-cis-retinoic acid were loaded into the implants at 10% concentrations. Briefly, pigmented rabbits were vitrectomized followed by intravitreal injection of 500,000 human RPE cells. After injection of the RPE cells the retinoid implants were placed into the vitreous and anchored to the sclera with the suture used to close the sclerotomy.
The eyes were examined weekly for 4 weeks. Severity of PVR was graded based on the Fastenberg scale. At 4 weeks gross pathology and limited histopathology were conducted.

[2] = Intraocular pharmacokinetics after single intravitreal injection of Tazarotene; assay type: in vivo, female New Zealand White rabbits; conditions: rabbit; for concentration at 2 hr / concentration at 24 hr / half-life: female, New Zealand White; for concentration at 2 hr / concentration at 24 hr: other: intravitreal injection; for concentration at 2 hr: 2 hr post dose; for concentration at 24 hr: 24 hr post dose; for half-life: topical or ocular
Description: The intraocular pharmacokinetics of Tazarotene was assessed in female New Zealand White rabbits following a single intravitreal injection. The rabbits were dosed with bilateral intravitreal injections of Tazarotene (1250 ng in 50 μL). At 0.5, 1, 2, 4, 8, 12, and 24 hr post dose, animals were sacrificed and the aqueous humor, vitreous humor, and retina samples were analyzed. […] The Tazarotene concentration in the retina was close to its vitreal concentration at all time points, declining from 859±131 ng/g at 2 hr post dose to 93.1±28.9 ng/g by 24 hr post dose. […] It was shown that Tazarotene has a relatively long intravitreal half-life and that the retinal concentration parallel the vitreous when given as a neat injection. However, despite a very low solubility the clearance of Tazarotene from the retina is fast enough to require sustained release for extended duration of action.

Solubility of tazarotene = assay type: physicochemical
Description: This was due to the extremely low solubility of Tazarotene in 0.9% saline, which was determined to be less than 1 μg/mL. Therefore, it was difficult to see any differences in the release profiles of different formulations. Work began to search for a release medium that would differentiate the release profiles of all formulations.

photoreceptors = test: Rhodopsin mutant transgenic rat models of retinal degeneration; assay type: in vivo, Transgenic S334ter rats; conditions: i.p., S334ter line 3 and line 4
Description: The objective of this study was to determine the efficacy of various retinoids in preventing retinal damage or improving retinal survival in rhodopsin mutant transgenic rat models of retinal degeneration. The overall goal of the research was to investigate potential photoreceptor survival in mutant rhodopsin transgenic rats using RAR α, RAR β γ, and RXR retinoid agonists.
The experimental design was straightforward. A compound was injected daily to line 3 and every two days for line 4 animals (i.p.) for a given period and animals were sacrificed at the end by CO2 overdose followed immediately by vascular perfusion of mixed aldehydes. Two litters of rats were used:
1. Transgenic S334ter-3 rats. Line 3 bears a rhodopsin mutation S334ter. […] Injection of a compound will be given daily from PD 6 (post-delivery day 6) to PD 20.
2. Transgenic S334ter-4 rats. Line 4 bears a rhodopsin mutation S334ter. Animals of this line experience a 80% loss of photoreceptors by 60 days after birth. The ONL is reduced to one row of nuclei. Injection of a compound will be given every other day from PD 25 to PD 60.
For the line 3 animals, treatment started at PD 6 and the endpoint was PD 20. For the line 4, injection began at PD 25 and ended at PD60 when eyes were harvested. Eyes were embedded in an Epon/Araldite mixture for sectioning at 1 μm thickness along the vertical meridian. Protection of photoreceptors was be evaluated by counting the rows of nuclei in the outer nuclear layer.
The outcome was a measure of retinal outer layer thickness, and cytology over an 8 week period. Compounds included the retinoid agonists tazarotene (RAR β γ), AGN 195183 (RAR α) and AGN 194204 (RXR). […] This is a fairly harsh model and as such the modest improvement by tazarotene is quite significant.

[3] = Measured lipophilicity of tazarotene; assay type: physicochemical
[4] = Plasma concentrations after topical and oral dosing of tazarotene; assay type: in vivo, patients; conditions: for Cmax: human, po, read-out: TAZAROTENE Cmax
Description: […] For the most part tazarotene is not observed in the plasma after topical or oral administration. Facile hydrolysis by pre-systemic metabolism rapidly generates the free acid. […] It is important to note that these are plasma concentrations and the eye plasma distribution ratio is 0.02. Over 90% of all patients in the phase 3 clinical trials had concentrations of the parent compound, tazarotene, <1 ng/mL with the highest being 6 ng/mL.
Oral delivery of 1.1 mg and 6 mg multiple doses led to 28.9 ng/mL and 227 ng/ml peak levels with a 2.56 ng/mL trough. This corresponds to a maximum possible 4 ng/mL ocular level for the highest dose. FIG. 11 depicts the tissue distribution of tazarotenic acid. The eyes show a 2% tissue/plasma ration in the rat. It should be noted that tazarotenic acid is 99% protein bound and distribution is limited to unbound drug.

[5] = test system: retinal function and structure; test: Blue light retinal degeneration model; assay type: in vivo, Sprague dawley rats; conditions: daily oral doses for five days before 12000 lux blue light, eight hours
Description: AGN 194310, AGN 194204, tazarotene and AGN 199852 were evaluated in the blue light retinal degeneration model. Sprague dawley rats were pretreated for five days with daily oral doses of the retinoids. The rats were then exposed to high intensity light, 12000 lux blue fluorescent, for eight hours. Five days post exposure the retinal function was assessed by full flash ERG and structure by outer nuclear layer thickness.

[6] = retina, 1250 ng, read-out: Tazarotene concentration in the retina
[7] = vitreous humor, 1250 ng intravitreal, read-out: Tazarotene concentration in the vitreous humor

CCOC(=O)c1ccc(C#Cc2ccc3c(c2)C(C)(C)CCS3)nc1 [Tazarotene, Ethyl 6-[(4,4-dimethylthiochroman-6-yl)ethynyl]nicotinate]
safety by gross pathology and limited histopathology ([1]; at 4 weeks): good safety profile
eyes progressed to traction retinal detachment ([1]; at 28 days, 10% loaded PLA/PLGA implants, intravitreal): 12%
concentration at 2 hr [2, 6]: 859 ± 131 ng/g
concentration at 24 hr [2, 6]: 93.1 ± 28.9 ng/g
half-life ([2]; retina, 1250 ng, read-out: mean t1/2 of elimination from the retina (converted)): 7.63 h
concentration at 2 hr [2, 7]: 578 ± 77 ng/g
concentration at 24 hr [2, 7]: 115 ± 33 ng/g
half-life ([2]; vitreous humor, 1250 ng, read-out: mean half-life (t1/2) in vitreous humor (converted)): 9.22 h
mean vitreal clearance (Cl) ([2]; in vivo): 0.123 mL/h
vitreal clearance ([2]; in vivo): 2.95 mL/day
solubility (Solubility of tazarotene; 0.9% saline, saline or isotonic, read-out: solubility in 0.9% saline): < 1 µg/mL
solubility (Solubility of tazarotene; water, read-out: solubility in water): 1 µg/mL (≈ 2.85 µM)
protection of photoreceptors (outer nuclear layer) (photoreceptors): only compound to show efficacy
logP [3]: 4.3
logD ([3]; pH 7.4, value marked measured in Table 3, read-out: log D pH 7.4 (measured)): 4.3
Cmax ([4]; plasma, 1.1 mg/Day, plasma, Oral 1.1 mg/Day, in 95%): < 0.1 ng/mL
Cmax ([4]; plasma, 3 mg/Day, plasma, Oral 3.0 mg/Day): < 0.1 ng/mL
Cmax ([4]; plasma, 6 mg/Day, plasma, Oral 6.0 mg/Day): < 0.1 ng/mL
highest plasma concentration of tazarotene in phase 3 clinical trials ([4]; in vivo): 6 ng/mL
plasma concentration of tazarotene in phase 3 clinical trials ([4]; over 90% of all patients): < 1 ng/mL
TAZAROTENE Cmax ([4]; plasma, Topical Gel 0.1%, for >90%): BLQ for >90%
protection of retinal function (ERG) and structure (outer nuclear layer thickness) [5]: significantly protect both retinal function and structure
